Literature values in patent US20260165989A1 (Société des Produits Nestlé S.A., priority 2024, published 2026).

Conditions: counter ion (base) for salt screening

pKa(s)*: 12.2
SMILES: C[N+](C)(C)CC(=O)O [Betaine]
